# Values quoted from earlier work, collected in patent US12336993B2, “Therapeutic benefit of suboptimally administered chemical compounds” (priority 2013, dated 2025).
# What was measured:
# [1] = molecular target: glycogen synthase kinase-33 (GSK-30) (Homo sapiens, UniProt P49841)
# DNA = settings: guanine-N7 alkylation of DNA
# [2] = test system: chronic lymphocytic leukemia; settings: literature reports (Kennedy & Theologides 1961; Kennedy et al. 1999)
# Hodgkin's lymphoma = settings: literature reports (Gold et al. 1970; Kennedy et al. 1999)
# non-Hodgkin's lymphoma = settings: literature report (Kennedy et al. 1999)
# glycogen synthase kinase-33 (GSK-30), sequence (P49841 whole entry): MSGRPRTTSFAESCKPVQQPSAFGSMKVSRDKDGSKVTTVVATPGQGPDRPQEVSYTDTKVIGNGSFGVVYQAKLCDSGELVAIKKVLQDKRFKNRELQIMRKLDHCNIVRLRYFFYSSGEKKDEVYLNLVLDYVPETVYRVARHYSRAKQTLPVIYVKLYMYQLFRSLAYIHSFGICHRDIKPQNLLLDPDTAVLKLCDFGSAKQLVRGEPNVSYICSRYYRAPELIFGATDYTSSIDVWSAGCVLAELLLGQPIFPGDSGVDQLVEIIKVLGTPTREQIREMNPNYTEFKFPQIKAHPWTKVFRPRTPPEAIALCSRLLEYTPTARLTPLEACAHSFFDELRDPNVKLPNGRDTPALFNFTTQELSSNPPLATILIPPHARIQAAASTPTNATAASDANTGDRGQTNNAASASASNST
SMILES,concentration at which inhibition of GSK is promoted [1] [nM],sequence preferences to alkylate (DNA),activity in chronic lymphocytic leukemia [2],activity in Hodgkin's lymphoma (Hodgkin's lymphoma),activity in non-Hodgkin's lymphoma (non-Hodgkin's lymphoma)
CN1C(=O)/C(=C2/C(=O)Nc3ccccc32)c2ccccc21 [meisoindigo],5 to 50,,,,
"O=c1[nH]cc(N(CCCl)CCCl)c(=O)[nH]1 [uracil mustard, 5-[bis(2-chloroethyl)amino]-1H-pyrimidine-2,4-dione]",,5′-YGC-3′,active,active,active
